Data as given in PubChem BioAssay (NCI).
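How tested: cells in 96-well plates exposed to compound for 48 hours at five concentrations. The concentration for 50% growth inhibition is given as GI50. TGI marks complete inhibition of growth.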

How the values were obtained:
Assay in all cases: growth of human tumour cells (NCI), 48 h
786-0 renal = test system: 786-0 renal
A549 NSCLC = test system: A549 NSCLC
ACHN renal = test system: ACHN renal
CAKI-1 renal = test system: CAKI-1 renal
CCRF-CEM leukemia = test system: CCRF-CEM leukemia
COLO 205 colon = test system: COLO 205 colon
HCT-116 colon = test system: HCT-116 colon
HCT-15 colon = test system: HCT-15 colon
HL-60(TB) leukemia = test system: HL-60(TB) leukemia
HT29 colon = test system: HT29 colon
K-562 leukemia = test system: K-562 leukemia
KM12 colon = test system: KM12 colon
M14 melanoma = test system: M14 melanoma
MCF7 breast = test system: MCF7 breast
MDA-MB-435 = test system: MDA-MB-435
MDA-N = test system: MDA-N
MOLT-4 leukemia = test system: MOLT-4 leukemia
NCI-H460 lung = test system: NCI-H460 lung
NCI-H522 lung = test system: NCI-H522 lung
OVCAR-3 ovarian = test system: OVCAR-3 ovarian
OVCAR-8 ovarian = test system: OVCAR-8 ovarian
RPMI-8226 leukemia = test system: RPMI-8226 leukemia
SF-268 CNS = test system: SF-268 CNS
SF-295 CNS = test system: SF-295 CNS
SK-MEL-5 melanoma = test system: SK-MEL-5 melanoma
SN12C renal = test system: SN12C renal
SW-620 colon = test system: SW-620 colon
T-47D breast = test system: T-47D breast
UO-31 renal = test system: UO-31 renal

O=C(O)CC(NC(=O)CP(=O)(O)O)C(=O)O.[NH-]C1CCCCC1[NH-].[Pt+2] (stereo not given)
GI50 (786-0 renal): 52 µM
GI50 (A549 NSCLC): 56.4 µM
GI50 (ACHN renal): 84.7 µM
GI50 (CAKI-1 renal): 96.2 µM
GI50 (CCRF-CEM leukemia): 18 µM
GI50 (COLO 205 colon): 51 µM
GI50 (HCT-116 colon): 30.4 µM
GI50 (HCT-15 colon): 67.9 µM
GI50 (HL-60(TB) leukemia): 40.2 µM
GI50 (HT29 colon): 56.3 µM
GI50 (K-562 leukemia): 5.38 µM
GI50 (KM12 colon): 84.1 µM
GI50 (M14 melanoma): 77.2 µM
GI50 (MCF7 breast): 75.8 µM
GI50 (MDA-MB-435): 75.9 µM
GI50 (MDA-N): 70.5 µM
GI50 (MOLT-4 leukemia): 0.675 µM
TGI (MOLT-4 leukemia): 31.4 µM
GI50 (NCI-H460 lung): 42.2 µM
GI50 (NCI-H522 lung): 60.8 µM
GI50 (OVCAR-3 ovarian): 88.3 µM
GI50 (OVCAR-8 ovarian): 74.4 µM
GI50 (RPMI-8226 leukemia): 5.93 µM
GI50 (SF-268 CNS): 78.8 µM
GI50 (SF-295 CNS): 56.3 µM
GI50 (SK-MEL-5 melanoma): 70.2 µM
GI50 (SN12C renal): 96.6 µM
GI50 (SW-620 colon): 19.6 µM
GI50 (T-47D breast): 94.7 µM
GI50 (UO-31 renal): 41.3 µM
